These results are taken from patent publication US4283538A, “Novel triarylmethane compounds” (Polaroid Corporation, priority 1979, dated 1981).

What all share (assay type): physicochemical
Series [1] can be described thus: Decolorization of methanol solution added to aqueous 1 N KOH.
Series [2] can be described thus: Transmission densities (R, G, B) of image-receiving components containing the dye before and after bleaching with aqueous 1 N KOH. As to conditions: for Transmission Density After Bleaching, B / Transmission Density Before Bleaching, B: blue; for Transmission Density After Bleaching, G / Transmission Density Before Bleaching, G: green; for Transmission Density After Bleaching, R / Transmission Density Before Bleaching, R: red. From the text: Using appropriate solvents, samples of the dye compounds prepared in Examples 12, 13, 24 and 26 were incorporated into the image-receiving layer 3 of four image-receiving components comprising the structure set forth below by mixing the solution of each compound with a solution of the graft copolymer and coating this mixture on top of the timing layer to complete each of the image-receiving components.
A transparent 4 mil polyethylene terephthalate film base coated with, in succession:
1. as a polymeric acid layer, a mixture of about 9 parts of a partial butyl ester of polyethylene/maleic anhydride copolymer and 1 part of polyvinyl butyral coated at a coverage of about 2,500 mgs./ft.^2 ;
2. a timing layer containing a 14:1 ratio of a 60-30-4-6 tetrapolymer of butylacrylate, diacetone acrylamide, styrene and methacrylic acid and polyvinyl alcohol at a coverage of 500 mgs./ft.^2 ;
3. a graft copolymer of 4-vinylpyridine and vinylbenzyltrimethylammoniumchloride grafted on hydroxyethyl cellulose in a weight ratio of 2.2/1/2.2, respectively, coated at a coverage of 300 mgs./ft.^2 to provide an imagereceiving layer and containing the selected dye compound at a coverage of 22 mgs./ft.^2.
Each of the image-receiving components containing the respective dye compounds were placed on a piece of gelatin coated Mylar, and the transmission densities for red (R), green (G) and blue (B) were recorded on a transmission densitometer. Then several drops of aqueous 1 N KOH were added to each gelatin sheet, and the image-receiving components were lightly pressed against the gelatin sheets to "bleach" the dye compounds. […]

Series [3] can be described thus: Bleaching rate (T1/2) in pH=12 aqueous buffer, visible spectrometer. To be noted: selected wavelength for optical density recording, pH=12 buffer. As to the method: Also, the "bleaching" rates for the compounds of Examples 21, 23 and 24 were determined at pH=12 in terms of T1/2. By T1/2 is meant the time measured for one-half of the colored compound to decolorize. In making these determinations, a cell containing about 3 ml of pH=12 buffer (aqueous) was placed in a visible spectrometer. A sample of each compound was dissolved in methanol, and a small amount (less than 0.1 cc) of each solution was injected into the buffer. The optical densities were then recorded at a selected wavelenth value to determine T1/2.

Series [4] can be described thus: Persistence of colorlessness on acidification to pH 1 after decolorization in aqueous 1 N sodium hydroxide. As to conditions: methanol solution decolorized with aqueous 1 N NaOH, then aqueous HCl to pH 1. From the text: As discussed above and also in the aforementioned application, the subject compounds have the ability to decolorize completely and irreversibly in base by undergoing an irreversible cleavage reaction within a predetermined time at a predetermined pH to give a new colorless compound which remains colorless at the pH's normally encountered during processing subsequent to "bleaching" so that the new compound may be retained in a photographic film unit, e.g., a photosensitive element without the possibility of color reappearing in time. In this regard, samples of the compounds prepared in Examples 24 and 26 above were dissolved in a small amount of methanol, and aqueous 1 N sodium hydroxide was added to each solution to decolorize the compound.

Setting [5] is: 15 to 60 seconds after aqueous 1 N KOH.
[6] abbreviates: dye 22 mgs./ft.^2 in image-receiving layer.
Setting [7] is: dye 22 mgs./ft.^2 in image-receiving layer, densitometer set at 0.00 with two gelatin coated mylar.
Setting [8] is: coating stored for over 3 months.
Setting [9] is: coating stored for over 3 months, bleaching time about 3 minutes, aqueous 1 N KOH.

`CC(=O)N(C)S(=O)(=O)c1ccccc1C(=C1C=C(C(O)(C(F)(F)F)C(F)(F)F)C(=O)c2ccccc21)c1cc2c3c(c1)CCCN3CCC2` [Example 9]: in series [1], the time to decolorize result is “approximately 5 seconds”.
With `COC1=CC(=C(c2ccc(N3CCOCC3)cc2)c2ccccc2S(=O)(=O)N(C)C(=O)OCCS(C)(=O)=O)C=C(OC)C1=O` [Example 12], in series [2] (setting [5]), the “Transmission Density After Bleaching, B” value is “.00”; the “Transmission Density After Bleaching, G” value is “.01”; the “Transmission Density After Bleaching, R” value was “.02”. In series [2] (setting [6]), the “Transmission Density Before Bleaching, B” value was “.45” and the “Transmission Density Before Bleaching, G” value was “.31”. The “Transmission Density Before Bleaching, R” value in series [2] (setting [7]) was “.00”.
As to `COC1=CC(=C(c2cc3c4c(c2)CCCN4CCC3)c2ccccc2S(=O)(=O)N(C)C(=O)OCCS(C)(=O)=O)C=C(OC)C1=O` [Example 13], in series [2] (setting [5]), the “Transmission Density After Bleaching, B” value was “.00”; the “Transmission Density After Bleaching, G” value was “.01”; the “Transmission Density After Bleaching, R” value is “.01”. For the same molecule, in series [2] (setting [6]), the “Transmission Density Before Bleaching, B” value is “.09” and the “Transmission Density Before Bleaching, G” value is reported as “.32”. Further, the “Transmission Density Before Bleaching, R” value in series [2] (setting [7]) is reported as “.21”.
Turning to `COC1=CC(=C(c2cc(OC)c(O)c(OC)c2)c2ccccc2S(=O)(=O)N(C)C(=O)OCCS(C)(=O)=O)C=C(OC)C1=O` [Example 21], the “Wavelength (λmax-nm)” value in series [3] was 640 nm.
On the same count and under the same terms, the figure for `COC1=CC(=C(c2cc(OC)c(O)c(OC)c2)c2ccccc2S(=O)(=O)N(C)C(C)=O)C=C(OC)C1=O` [Example 23] is 640 nm.
Take `CC1=CC(=C(c2cc(C)c(O)c(C)c2)c2ccccc2S(=O)(=O)N(C)C(=O)OCCS(C)(=O)=O)C=C(C)C1=O` [Example 24]: in series [2] (setting [5]), the “Transmission Density After Bleaching, B” value was “.00”; the “Transmission Density After Bleaching, G” value is on record as “.00”; the “Transmission Density After Bleaching, R” value was “.01”. Moreover, in series [2] (setting [6]), the “Transmission Density Before Bleaching, B” value is recorded as “.40” and the “Transmission Density Before Bleaching, G” value is “.00”. Besides, the “Transmission Density Before Bleaching, R” value in series [2] (setting [7]) was “.00”. In addition, in series [4], the “color after decolorization and acidification to pH 1” value is on record as “remained colorless even at pH 1”. The “Wavelength (λmax-nm)” value in series [3] is recorded as 590 nm.
`CN(C(=O)OCCS(C)(=O)=O)S(=O)(=O)c1ccccc1C(=C1C=C(C(O)(C(F)(F)F)C(F)(F)F)C(=O)c2ccccc21)c1cc2c3c(c1)CCCN3CCC2` [Example 26]: in series [2] (setting [8]), the “Transmission Density Before Bleaching, B” value is “.05”; the “Transmission Density Before Bleaching, G” value is “.06”; the “Transmission Density Before Bleaching, R” value is listed as “.19”. In series [2] (setting [9]), the “Transmission Density After Bleaching, B” value is recorded as “.02”; the “Transmission Density After Bleaching, G” value is “.00”; the “Transmission Density After Bleaching, R” value is “.02”. Besides, the “time to decolorize (in words)” value in series [1] was “substantially instantaneously”. Also, the “color after decolorization and acidification to pH 1” value in series [4] was “remained colorless even at pH 1”.
